Test results as given in patent US10184115B2, “Mutated cellobiose dehydrogenase with increased substrate specificity” (DIRECTSENS GMBH, priority 2012, dated 2019).

Molecular target: T1, Corynascus thermophilus cellobiose dehydrogenase (CDH), recombinant wild type, SEQ ID NO: 7 (Thermothelomyces fergusii, UniProt E7D6B9)
T1 sequence (E7D6B9 24-787): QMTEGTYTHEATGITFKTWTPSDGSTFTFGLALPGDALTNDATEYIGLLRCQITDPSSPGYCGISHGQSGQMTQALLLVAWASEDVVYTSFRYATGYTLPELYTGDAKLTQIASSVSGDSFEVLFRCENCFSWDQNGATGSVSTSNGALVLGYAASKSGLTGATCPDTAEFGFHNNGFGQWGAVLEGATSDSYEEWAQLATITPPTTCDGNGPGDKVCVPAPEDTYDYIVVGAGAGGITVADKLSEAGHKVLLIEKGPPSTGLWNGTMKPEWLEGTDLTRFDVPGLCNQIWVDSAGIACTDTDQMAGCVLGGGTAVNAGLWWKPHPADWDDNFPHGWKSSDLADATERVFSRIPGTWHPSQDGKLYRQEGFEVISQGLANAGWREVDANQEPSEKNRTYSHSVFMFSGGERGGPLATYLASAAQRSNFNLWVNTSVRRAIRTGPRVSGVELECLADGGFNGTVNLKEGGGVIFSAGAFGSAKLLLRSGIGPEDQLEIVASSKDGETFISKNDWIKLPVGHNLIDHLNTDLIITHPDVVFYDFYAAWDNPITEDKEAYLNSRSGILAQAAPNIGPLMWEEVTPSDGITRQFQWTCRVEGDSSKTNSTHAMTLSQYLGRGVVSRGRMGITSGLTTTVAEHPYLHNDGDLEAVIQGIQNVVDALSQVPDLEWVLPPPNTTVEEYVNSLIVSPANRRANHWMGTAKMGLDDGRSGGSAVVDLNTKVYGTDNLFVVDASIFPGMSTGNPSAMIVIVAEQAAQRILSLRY
Experiment: Steady-state kinetics, DCIP assay: C. thermophilus CDH wt
Details: apparent, pH 5.5, 30° C.
Procedure: Enzyme activity was assayed at 30° C. using either the DCIP (Karapetyan et al., 2005 Journal of Biotechnology 121: 34-48) or cytochrome c (Canevascini et al., 1991, European Journal of Biochemistry 198: 43-52) as electron acceptor. […] Stock solutions of carbohydrates used for kinetic measurements were prepared in the respective buffer and allowed to stand overnight for mutarotation, while stock solutions of electron acceptors were prepared in water and immediately used. The reaction stoichiometry is 1 for the two-electron acceptor DCIP (1 mole of DCIP reduced per mole of carbohydrate oxidized), but 2 for the one-electron acceptor cytochrome c. Kinetic constants were calculated by fitting the observed data to the Henri-Michaelis-Menten equation or to the adapted model for substrate inhibition using nonlinear least-squares regression and the program SigmaPlot (Systat Software, San Jose, Calif., USA). […]
Recombinant wild-type CDH as well as variants were produced in 1 L baffled flasks. […] Increase in activity was monitored using the DCIP and the cytochrome c enzyme assays. […]
The sample was loaded on a 20 mL PHE Sepharose FF column (HR26/20) equilibrated with 50 mM Na-acetate buffer pH 5.5 containing 20% ammonium sulfate. […] Fractions were tested for CDH activity and pooled according to the highest Reinheitszahl (RZ, calculated from the absorbance ratio 420 nm/280 nm). […]

SMILES: OC[C@H]1OC(O)[C@H](O)[C@@H](O)[C@@H]1O (some centres unmarked) [Glucose, glucose]
- kcat: 4.09 s⁻¹
- kcat/KM: 170 M⁻¹ s⁻¹
